Test results reported in patent US20250082585A1, “METHOD FOR STORING REDUCED COENZYME Q10” (KANEKA CORPORATION, priority 2021, published 2025).

Assay: Evaluation of oxidation stability (QH residual rate after storage, QH ratio by HPLC)
Assay type: physicochemical
Protocol: The weight ratio of reduced coenzyme Q10 to total coenzyme Q10 (namely, reduced coenzyme Q10/(oxidized coenzyme Q10+reduced coenzyme Q10)) is defined as “QH ratio”. The QH ratio was determined by the following HPLC analysis. For the evaluation of oxidation stability, a rate of the change in the QH ratio at the end of the evaluation from that at the beginning of the evaluation was defined as “QH residual rate”, and the QH residual rate determined by the following expression was used as a measure of oxidation stability.
QH residual rate (%)=100×QH ratio at the end of the evaluation/QH ratio at the beginning of the evaluation […]
In a glass vial (volume 33 ml), 0.1 g of the QH Form I crystal was placed. […] The glass vial was sealed, and stored under a temperature of 40° C. and a relative humidity of 75% for 2 weeks, after which the QH residual rate was determined.
In a glass vial, 0.2 g of the QH Form I crystal was placed. The glass vial was opened, and stored under a temperature of 40° C. and a relative humidity of 11% for 2 weeks, after which the QH residual rate was determined.
In a glass vial (volume 33 ml), 0.1 g of the QH Form I crystal was placed. […] The glass vial was sealed, and stored under a temperature of 25° C. and a relative humidity of 60% for 4 weeks, after which the QH residual rate was determined. […]

Row | SMILES | QH residual rate (0.1 g QH Form I crystal, with aqueous solution of Table 3 or without (comparative), sealed glass vial, 25° C., relative humidity 60%, 4 weeks) [%] | QH residual rate (0.2 g QH Form I crystal without water, opened glass vial, 40° C., relative humidity 11%, 2 weeks) [%]
1 | COc1c(O)c(C)c(C/C=C(\C)CC/C=C(\C)CC/C=C(\C)CC/C=C(\C)CC/C=C(\C)CC/C=C(\C)CC/C=C(\C)CC/C=C(\C)CC/C=C(\C)CCC=C(C)C)c(O)c1OC [Comparative Example 2, reduced coenzyme Q10] | 33.3 | 
2 | COc1c(O)c(C)c(C/C=C(\C)CC/C=C(\C)CC/C=C(\C)CC/C=C(\C)CC/C=C(\C)CC/C=C(\C)CC/C=C(\C)CC/C=C(\C)CC/C=C(\C)CCC=C(C)C)c(O)c1OC [Comparative Example 1, reduced coenzyme Q10] |  | 34.9
